In ChEMBL document CHEMBL4609983, “Pan-specific and partially selective dye-labeled peptidic inhibitors of the polycomb paralog proteins” (Bioorg Med Chem, 2020):
Non-standard residues stand in square brackets, D forms with d. Residues, ends and D or L forms follow the SMILES beside them. *: point of attachment. X1 = O=C(O)c1cc(NC(=S)*)ccc1-c1c2ccc(=O)cc-2oc2cc(O)ccc12; Lys(Me3) = C[N+](C)(C)CCCC[C@H](N)C(=O)O; Benzoyl(4-Br) = O=C(c1ccc(Br)cc1)*; Gly(cPent) = N[C@H](C(=O)O)C1CCCC1; Abu = CC[C@H](N)C(=O)O; βAla = NCCC(=O)O

How the values were obtained:
TOV21G = test: Decrease in cell viability in human TOV21G cells by MTT assay; format: cell-based
[1] = target: T1, Chromobox protein homolog 6 (Homo sapiens, UniProt O95503); test: Inhibition of CBX6 (unknown origin) assessed as […] by competitive FP assay
T1 sequence (O95503 whole entry): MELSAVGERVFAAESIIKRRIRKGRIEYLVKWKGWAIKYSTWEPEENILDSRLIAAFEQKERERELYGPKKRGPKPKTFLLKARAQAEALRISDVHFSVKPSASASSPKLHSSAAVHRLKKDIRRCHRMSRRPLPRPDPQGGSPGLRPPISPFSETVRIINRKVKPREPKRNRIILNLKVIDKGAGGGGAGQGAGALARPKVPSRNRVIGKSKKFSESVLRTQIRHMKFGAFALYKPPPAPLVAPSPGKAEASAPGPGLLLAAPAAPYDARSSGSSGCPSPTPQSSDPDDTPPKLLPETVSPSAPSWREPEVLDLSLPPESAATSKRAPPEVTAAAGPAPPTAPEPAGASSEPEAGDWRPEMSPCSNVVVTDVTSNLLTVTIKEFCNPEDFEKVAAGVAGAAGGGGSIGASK

[2] = target: T2, Chromobox protein homolog 7 (Homo sapiens, UniProt O95931); test: Inhibition of CBX7 (unknown origin) assessed as […] by competitive FP assay
T2 sequence (O95931 whole entry): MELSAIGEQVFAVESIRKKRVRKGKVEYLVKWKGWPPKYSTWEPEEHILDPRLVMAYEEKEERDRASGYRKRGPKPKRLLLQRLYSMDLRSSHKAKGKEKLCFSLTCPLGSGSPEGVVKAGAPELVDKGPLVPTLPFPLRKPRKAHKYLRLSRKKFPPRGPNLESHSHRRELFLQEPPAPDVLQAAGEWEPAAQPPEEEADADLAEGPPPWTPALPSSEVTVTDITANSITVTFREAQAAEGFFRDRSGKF

[3] = target: T3, Chromobox protein homolog 8 (Homo sapiens, UniProt Q9HC52); test: Inhibition of CBX8 (unknown origin) assessed as […] by competitive FP assay
T3 sequence (Q9HC52 whole entry): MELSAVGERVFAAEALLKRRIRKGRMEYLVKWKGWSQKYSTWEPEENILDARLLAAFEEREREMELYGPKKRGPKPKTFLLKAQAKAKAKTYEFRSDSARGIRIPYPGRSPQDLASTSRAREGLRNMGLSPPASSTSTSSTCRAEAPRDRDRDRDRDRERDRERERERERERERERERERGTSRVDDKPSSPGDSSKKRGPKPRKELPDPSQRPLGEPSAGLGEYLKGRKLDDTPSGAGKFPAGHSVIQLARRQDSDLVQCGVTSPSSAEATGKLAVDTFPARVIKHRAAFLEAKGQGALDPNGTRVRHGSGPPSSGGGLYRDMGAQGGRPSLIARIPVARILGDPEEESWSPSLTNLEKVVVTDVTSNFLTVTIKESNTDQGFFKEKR

[4] = target: T3, Chromobox protein homolog 8; test: Binding affinity to CBX8 (unknown origin) assessed as dissociation constant by fluorescence polarization analysis
[5] = target: Chromobox protein homolog 1 (Homo sapiens, UniProt P83916); test: Binding affinity to CBX1 (unknown origin) assessed as dissociation constant by fluorescence polarization analysis
[6] = target: T1, Chromobox protein homolog 6; test: Binding affinity to CBX6 (unknown origin) assessed as dissociation constant by fluorescence polarization analysis
[7] = target: T2, Chromobox protein homolog 7; test: Binding affinity to CBX7 (unknown origin) assessed as dissociation constant by fluorescence polarization analysis
[8] = target: T4, Chromobox protein homolog 2 (Homo sapiens, UniProt Q14781); test: Binding affinity to CBX2 (unknown origin) assessed as dissociation constant by fluorescence polarization analysis
T4 sequence (Q14781 whole entry): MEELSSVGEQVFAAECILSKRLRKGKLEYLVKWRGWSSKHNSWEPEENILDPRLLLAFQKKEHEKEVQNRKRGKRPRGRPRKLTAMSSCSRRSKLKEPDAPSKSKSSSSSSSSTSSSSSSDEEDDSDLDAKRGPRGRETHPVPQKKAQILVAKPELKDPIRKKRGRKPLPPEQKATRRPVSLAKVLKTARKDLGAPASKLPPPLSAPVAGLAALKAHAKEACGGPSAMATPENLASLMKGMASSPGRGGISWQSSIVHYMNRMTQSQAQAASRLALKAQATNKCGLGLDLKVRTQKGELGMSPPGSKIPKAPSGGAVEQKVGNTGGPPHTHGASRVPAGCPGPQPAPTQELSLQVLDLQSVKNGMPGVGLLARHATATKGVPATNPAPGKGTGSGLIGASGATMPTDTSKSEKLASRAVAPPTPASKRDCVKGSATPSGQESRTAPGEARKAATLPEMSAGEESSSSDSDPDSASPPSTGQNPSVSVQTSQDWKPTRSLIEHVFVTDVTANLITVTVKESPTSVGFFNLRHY

[9] = target: T5, E3 SUMO-protein ligase CBX4 (Homo sapiens, UniProt O00257); test: Binding affinity to CBX4 (unknown origin) assessed as dissociation constant by fluorescence polarization analysis
T5 sequence (O00257 whole entry): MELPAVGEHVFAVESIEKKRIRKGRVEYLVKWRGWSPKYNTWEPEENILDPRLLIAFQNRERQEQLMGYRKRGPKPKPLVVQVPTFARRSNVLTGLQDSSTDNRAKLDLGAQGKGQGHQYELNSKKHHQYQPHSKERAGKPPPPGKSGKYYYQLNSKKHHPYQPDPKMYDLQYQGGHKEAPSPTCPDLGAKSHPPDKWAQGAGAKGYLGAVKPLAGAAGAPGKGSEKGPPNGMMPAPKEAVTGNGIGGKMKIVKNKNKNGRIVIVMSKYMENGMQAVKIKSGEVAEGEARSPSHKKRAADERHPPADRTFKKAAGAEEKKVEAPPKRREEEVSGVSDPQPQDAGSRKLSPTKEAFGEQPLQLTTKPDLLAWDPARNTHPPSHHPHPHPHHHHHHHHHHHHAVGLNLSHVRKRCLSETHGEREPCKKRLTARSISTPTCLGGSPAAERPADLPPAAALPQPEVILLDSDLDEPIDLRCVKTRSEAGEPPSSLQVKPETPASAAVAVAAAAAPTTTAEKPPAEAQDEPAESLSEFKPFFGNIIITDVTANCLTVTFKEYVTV

Homo sapiens [10] = organism: Homo sapiens; test: Selectivity ratio of Kd for CBX4 (unknown origin) to Kd for CBX8 (unknown origin)
Homo sapiens [11] = organism: Homo sapiens; test: Selectivity ratio of Kd for CBX2 (unknown origin) to Kd for CBX8 (unknown origin)
Homo sapiens [12] = organism: Homo sapiens; test: Selectivity ratio of Kd for CBX7 (unknown origin) to Kd for CBX8 (unknown origin)
Homo sapiens [13] = organism: Homo sapiens; test: Selectivity ratio of Kd for CBX1 (unknown origin) to Kd for CBX8 (unknown origin)
Homo sapiens [14] = organism: Homo sapiens; test: Selectivity ratio of Kd for CBX6 (unknown origin) to Kd for CBX8 (unknown origin)

Chromobox protein homolog 1, sequence (P83916 whole entry): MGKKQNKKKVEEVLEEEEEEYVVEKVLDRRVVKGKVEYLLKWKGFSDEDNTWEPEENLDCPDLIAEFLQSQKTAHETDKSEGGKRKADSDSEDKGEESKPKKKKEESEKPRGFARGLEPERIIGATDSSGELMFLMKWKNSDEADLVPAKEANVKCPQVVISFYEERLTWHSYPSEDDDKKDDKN

Structure (SMILES)	Activity (TOV21G)	IC50 [1] [nM]	IC50 [2] [nM]	IC50 [3] [nM]	Kd [4] [nM]	Kd [5] [nM]	Kd [6] [nM]	Kd [7] [nM]	Kd [8] [nM]	Kd [9] [nM]	Selectivity ratio (Homo sapiens [10])	Selectivity ratio (Homo sapiens [11])	Selectivity ratio (Homo sapiens [12])	Selectivity ratio (Homo sapiens [13])	Selectivity ratio (Homo sapiens [14])
CC(C)C[C@H](NC(=O)[C@H](CO)NC(=O)[C@H](CCCC[N+](C)(C)C)NC(=O)[C@H](Cc1ccc(O)cc1)NC(=O)[C@H](C)NC(=O)[C@H](Cc1ccccc1)NC(=O)c1ccc(Br)cc1)C(N)=O ({Benzoyl(4-Br)}-FAY[Lys(Me3)]SL-NH2)	Non-Toxic	13000	1100	19000	–	–	–	–	–	–	–	–	–	–	–
CC(C)C[C@H](NC(=O)[C@H](CO)NC(=O)[C@H](CCCC[N+](C)(C)C)NC(=O)[C@H](Cc1ccc(O)cc1)NC(=O)[C@H](C)NC(=O)[C@H](Cc1ccccc1)NC(=O)c1ccc(Br)cc1)C(=O)N[C@@H](CCCCNC(=S)Nc1ccc(-c2c3ccc(=O)cc-3oc3cc(O)ccc23)c(C(=O)O)c1)C(N)=O ({Benzoyl(4-Br)}-FAY[Lys(Me3)]SLK(X1)-NH2)	–	–	–	–	890	1750	78	11	–	–	–	–	–	–	–
CC[C@H](NC(=O)[C@H](Cc1ccccc1)NC(=O)c1ccc(Br)cc1)C(=O)N[C@@H](Cc1ccccc1)C(=O)N[C@@H](CCCC[N+](C)(C)C)C(=O)N[C@@H](CO)C(=O)N[C@@H](CCC(=O)O)C(=O)N[C@@H](CCCCNC(=S)Nc1ccc(-c2c3ccc(=O)cc-3oc3cc(O)ccc23)c(C(=O)O)c1)C(N)=O ({Benzoyl(4-Br)}-F[Abu]F[Lys(Me3)]SEK(X1)-NH2)	–	–	–	–	960	180000	800	300	1500	700	–	–	–	–	–
CC[C@H](NC(=O)[C@H](Cc1ccccc1)NC(=O)c1ccc(Br)cc1)C(=O)N[C@H](C(=O)N[C@@H](CCCC[N+](C)(C)C)C(=O)N[C@@H](CO)C(=O)N[C@@H](CCC(=O)O)C(=O)N[C@@H](CCCCNC(=S)Nc1ccc(-c2c3ccc(=O)cc-3oc3cc(O)ccc23)c(C(=O)O)c1)C(N)=O)C1CCCC1 ({Benzoyl(4-Br)}-F[Abu][Gly(cPent)][Lys(Me3)]SEK(X1)-NH2)	–	–	–	–	120	3200	350	160	390	600	5	3	2	26	3
CC(C)C[C@H](NC(=O)[C@H](C)NC(=O)[C@H](Cc1ccccc1)NC(=O)CCNC(=S)Nc1ccc(-c2c3ccc(=O)cc-3oc3cc(O)ccc23)c(C(=O)O)c1)C(=O)N[C@@H](CCCC[N+](C)(C)C)C(=O)N[C@@H](CO)C(N)=O ({X1-βAla}-FAL[Lys(Me3)]S-NH2)	–	–	–	–	4500	2500	900	700	1100	800	–	–	–	–	–
